The IC50 is the point on the concentration scale where inhibition reaches its midpoint.

Like-named read-outs stand apart in the source and are kept apart here.

The values that follow come from patent US6608082B1, “Treatment of erectile dysfunction using isoquinoline compound melanocortin receptor ligands” (Lion Bioscience AG, priority 1998, dated 2003).

The target in experiment [1] is T1, MCR-1 (Homo sapiens, UniProt Q01726).
T1 construct: expressed in transfected cells; host or cells: HEK 293
As to the kind of experiment: Melanocortin receptor binding assay, competition with 125I-HP 467, HEK 293 cells expressing hMCR-1. To be noted: for IC50: read-out: MC-1 IC50. The method, boiled down:
(§1)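 Intact-cell competition binding, 2.5 hr at 37 °C, in PBS/10% calf serum/1 mM CaCl2; hMCR-4 cells at 4×10^3 per tube, hMCR-1 cells at 2×10^4 per tube. Filtration on BSA/CaCl2-soaked GF/B, cold 50 mM Tris pH 7.4 washes, scintillation count.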

Experiment [2] has as its target T2, MCR-4 (Homo sapiens, UniProt P32245).
T2 construct: expressed in transfected cells; host or cells: HEK 293
As to the kind of experiment: Melanocortin receptor binding assay, competition with 125I-HP 467, HEK 293 cells expressing hMCR-4. To be noted: inhibition of binding of 125I-HP 467, HEK 293 cells expressing MCR-4, read-out: MC-4 IC50. The method, boiled down:
as §1

Where [3] appears, read: inhibition of binding of 125I-HP 467, HEK 293 cells expressing MCR-1.
[4] abbreviates: inhibition of binding of 125I-HP 467, HEK 293 cells expressing MCR-1, TRG 2414 library.

T1 sequence (Q01726 whole entry): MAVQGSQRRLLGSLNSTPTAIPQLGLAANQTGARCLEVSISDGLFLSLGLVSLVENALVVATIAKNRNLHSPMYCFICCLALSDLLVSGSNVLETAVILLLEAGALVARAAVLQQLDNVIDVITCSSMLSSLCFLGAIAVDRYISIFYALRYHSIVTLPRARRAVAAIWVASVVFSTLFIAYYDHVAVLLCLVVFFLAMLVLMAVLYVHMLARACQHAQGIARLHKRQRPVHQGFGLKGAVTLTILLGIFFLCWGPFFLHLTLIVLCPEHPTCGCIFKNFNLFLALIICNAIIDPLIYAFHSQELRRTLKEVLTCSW
T2 sequence (P32245 whole entry): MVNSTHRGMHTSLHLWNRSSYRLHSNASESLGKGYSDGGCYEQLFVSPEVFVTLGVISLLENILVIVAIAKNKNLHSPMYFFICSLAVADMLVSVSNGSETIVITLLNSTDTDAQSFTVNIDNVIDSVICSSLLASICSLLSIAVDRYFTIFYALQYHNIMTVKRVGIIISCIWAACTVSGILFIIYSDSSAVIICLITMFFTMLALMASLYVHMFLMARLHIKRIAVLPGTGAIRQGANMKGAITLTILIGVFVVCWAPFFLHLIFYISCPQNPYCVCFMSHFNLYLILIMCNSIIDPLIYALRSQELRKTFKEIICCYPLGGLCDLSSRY

As to `CCNc1ccc(C2C(CNC3CCCCC3)c3ccccc3CN2CCCC(CN)NCC)cc1` (centres unmarked) [TRG 2411-164], the results for the IC50 in experiment [1] (setting [3]) and in experiment [2] were 0.18 µM and 4.02 µM, respectively.
The corresponding values for `CCNc1ccc(C2C(CNC3CCCCC3)c3ccccc3CN2CCCC(CN)NCCc2ccc(Br)cc2)cc1` (centres unmarked) [TRG 2411-167] are 0.37 µM and 1.11 µM.
In the same order, the values of `CCNc1ccc(C2C(CNC3CCCCC3)c3ccccc3CN2CCCC(CN)NCc2ccccc2)cc1` (centres unmarked) [TRG 2411-169] are 0.22 µM and 0.44 µM.
Take `CCNc1ccc(C2C(CNC3CCCCC3)c3ccccc3CN2CCCC(CN)NCCC2CCCCC2)cc1` (centres unmarked) [TRG 2411-173]: the results for the concentration for half-maximal inhibition (IC50) in experiment [1] (setting [3]) and in experiment [2] were 0.14 µM and 1.59 µM, respectively.
For the molecule `CCNc1ccc(C2C(CN)c3ccccc3CN2CCCC(CN)NCCc2ccccc2)cc1` (centres unmarked) [TRG 2411-179], the IC50 came out at 0.07 µM in experiment [1] (setting [3]) and 1.43 µM in experiment [2].
In the case of `CCNc1ccc(C2C(CN)c3ccccc3CN2CCCC(CN)NCCc2ccc(Br)cc2)cc1` (centres unmarked) [TRG 2411-180], the concentration for half-maximal inhibition (IC50) is 0.12 µM in experiment [1] (setting [3]) and 1.06 µM in experiment [2].
Turning to `CCNc1ccc(C2C(CN)c3ccccc3CN2CCCC(CN)NCc2ccc(OC)cc2)cc1` (centres unmarked) [TRG 2411-184], the IC50 in experiment [1] (setting [3]) was determined as 0.09 µM; in experiment [2], 1.61 µM.
For `CCNc1ccc(C2C(CN)c3ccccc3CN2CCCC(CN)NCCC2CCCCC2)cc1` (centres unmarked) [TRG 2411-186], in experiment [1] (binding to MC receptors, Table 1), the “effectiveness as MC receptor ligand” value is recorded as “particularly effective MC receptor ligands”. The IC50 in experiment [1] (setting [3]) was 0.03 µM; in experiment [2] it was 0.58 µM.
For `CCCCNc1ccc(C2C(CNCCc3ccccc3)c3ccccc3CN2CCCC(CN)NCC)cc1` (centres unmarked) [TRG 2411-190], the IC50 in experiment [1] (setting [3]) is 0.19 µM; in experiment [2] it was 0.21 µM.
In the same order, the values of `CCCCNc1ccc(C2C(CNCCc3ccccc3)c3ccccc3CN2CCCC(CN)NCCCC)cc1` (centres unmarked) [TRG 2411-191] are 0.12 µM and 0.52 µM.
Turning to `CCCCNc1ccc(C2C(CNCCc3ccccc3)c3ccccc3CN2CCCC(CN)N2CCCC2)cc1` (centres unmarked) [TRG 2411-192], the concentration for half-maximal inhibition (IC50) in experiment [1] (setting [3]) was 0.07 µM; in experiment [2], 0.88 µM.
In the same order, the values of `CCCCNc1ccc(C2C(CNCCc3ccccc3)c3ccccc3CN2CCCC(CN)NCCc2ccccc2)cc1` (centres unmarked) [TRG 2411-193] are 0.15 µM and 1.24 µM.
With `CCCCNc1ccc(C2C(CNCCc3ccccc3)c3ccccc3CN2CCCC(CN)NCCc2ccc(Br)cc2)cc1` (centres unmarked) [TRG 2411-194], the IC50 was found to be 0.24 µM in experiment [1] (setting [3]) and 1.36 µM in experiment [2].
In the same order, the values of `CCCCNc1ccc(C2C(CNCCc3ccccc3)c3ccccc3CN2CCCC(CN)NCCc2ccc(OC)cc2)cc1` (centres unmarked) [TRG 2411-195] are 0.16 µM and 1.44 µM.
`CCCCNc1ccc(C2C(CNCCc3ccccc3)c3ccccc3CN2CCCC(CN)NCc2ccccc2)cc1` (centres unmarked) [TRG 2411-196]: the IC50 in experiment [1] (setting [3]) worked out at 0.12 µM; in experiment [2] it was 1.05 µM.
The corresponding values for `CCCCNc1ccc(C2C(CNCCc3ccccc3)c3ccccc3CN2CCCC(CN)NCCC2CCCCC2)cc1` (centres unmarked) [TRG 2411-200] are 0.13 µM and 1.34 µM.
Take `CCCCNc1ccc(C2C(CNC3CCCCC3)c3ccccc3CN2CCCC(CN)NCCc2ccc(Br)cc2)cc1` (centres unmarked) [TRG 2411-208]: the IC50 was determined as 0.47 µM in experiment [1] (setting [3]) and 0.86 µM in experiment [2].
As for `CCCCNc1ccc(C2C(CNC3CCCCC3)c3ccccc3CN2CCCC(CN)NCCc2ccc(OC)cc2)cc1` (centres unmarked) [TRG 2411-209], the IC50 in experiment [1] (setting [3]) turned out to be 0.35 µM; in experiment [2], 1.33 µM.
The corresponding values for `CCCCNc1ccc(C2C(CNC3CCCCC3)c3ccccc3CN2CCCC(CN)NCc2ccc(OC)cc2)cc1` (centres unmarked) [TRG 2411-212] are 0.1 µM and 1.93 µM.
The corresponding values for `CCCCNc1ccc(C2C(CNC3CCCCC3)c3ccccc3CN2CCCC(CN)NCCc2ccc3ccccc3c2)cc1` (centres unmarked) [TRG 2411-213] are 0.22 µM and 1.95 µM.
The corresponding values for `CCCCNc1ccc(C2C(CN)c3ccccc3CN2CCCC(CN)NCC)cc1` (centres unmarked) [TRG 2411-218] are 0.07 µM and 9.59 µM.
`CCCCNc1ccc(C2C(CN)c3ccccc3CN2CCCC(CN)NCCCC)cc1` (centres unmarked) [TRG 2411-219]: the IC50 amounted to 0.1 µM in experiment [1] (setting [3]) and 2.97 µM in experiment [2].
Regarding `CCOc1ccc(C2C(CNCCc3ccccc3)c3ccccc3CN2CCCCC(CN)NC)cc1` (centres unmarked) [TRG 2412-4], the figures for the IC50 in experiment [1] (setting [3]) and in experiment [2] were 0.31 µM and 0.32 µM, respectively.
On to `CCCCCNc1ccc(C2C(CNCCc3ccccc3)c3ccccc3CN2CCCC(CN)NC)cc1` (centres unmarked) [TRG 2412-16], for which the IC50 in experiment [1] (setting [3]) was determined as 0.09 µM; in experiment [2], 1.48 µM.
Take `CCCCCNc1ccc(C2C(CNCCc3ccccc3)c3ccccc3CN2CCCC(CN)NCCc2ccccc2)cc1` (centres unmarked) [TRG 2412-17]: the IC50 amounted to 0.27 µM in experiment [1] (setting [3]) and 1.15 µM in experiment [2].
The corresponding values for `CCOc1ccc(C2C(CNCCc3ccccc3)c3ccccc3CN2CCCC(CN)NCc2ccccc2)cc1` (centres unmarked) [TRG 2412-21] are 0.17 µM and 0.23 µM.
As to `CCCCOc1ccc(C2C(CNCCc3ccccc3)c3ccccc3CN2CCCC(CN)NC)cc1` (centres unmarked) [TRG 2412-25], the IC50 was found to be 0.16 µM in experiment [1] (setting [3]) and 1.06 µM in experiment [2].
The corresponding values for `CCCCCc1ccc(C2C(CNCCc3ccccc3)c3ccccc3CN2CCCC(CN)NCc2ccccc2)cc1` (centres unmarked) [TRG 2412-30] are 0.62 µM and 1.06 µM.
Consider `CCNc1ccc(C2C(CNCCc3ccccc3)c3ccccc3CN2CCCC(CN)NCCc2ccccc2)cc1` (centres unmarked) [TRG 2413-9], for which the IC50 worked out at 0.26 µM in experiment [1] (setting [3]) and 1.34 µM in experiment [2].
In the same order, the values of `CNC(CN)CCCN1Cc2ccccc2C(CNCCc2ccccc2)C1c1ccc([N+](=O)[O-])cc1` (centres unmarked) [TRG 2413-16] are 1.27 µM and 0.4 µM.
For `COc1ccccc1CCNCC1c2ccccc2CN(CCCCC(CN)NCCc2ccccc2)C1c1ccc(Cl)cc1Cl` (centres unmarked) [TRG 2414-10], the figures for the IC50 in experiment [1] (setting [4]) and in experiment [2] (TRG 2414 library) were 2.93 µM and 4.88 µM, respectively.
In the same order, the values of `COc1ccccc1CCNCC1c2ccccc2CN(CCCCC(CN)NCC(C)c2ccc(CC(C)C)cc2)C1c1ccc(Cl)cc1Cl` (centres unmarked) [TRG 2414-12] are 11.7 µM and 34.5 µM.
In the case of `NCC(N)CCCCN1Cc2ccccc2C(CNCCc2cccc(Cl)c2)C1c1ccc(Cl)cc1Cl` (centres unmarked) [TRG 2414-13], the IC50 in experiment [1] (setting [4]) is 2.19 µM; in experiment [2] (TRG 2414 library), 1.18 µM.
With `NCC(CCCCN1Cc2ccccc2C(CNCCc2cccc(Cl)c2)C1c1ccc(Cl)cc1Cl)NCCc1ccccc1` (centres unmarked) [TRG 2414-14], the IC50 amounted to 3.23 µM in experiment [1] (setting [4]) and 2.92 µM in experiment [2] (TRG 2414 library).
`NC[C@H](CCCCN1Cc2ccccc2C(CNCCc2cccc(Cl)c2)C1c1ccc(Cl)cc1Cl)NCc1ccccc1` (some centres unmarked) [TRG 2414-15]: the IC50 in experiment [1] (setting [4]) was 6.41 µM; in experiment [2] (TRG 2414 library) it was 6.93 µM.
Consider `CC(C)Cc1ccc(C(C)CNC(CN)CCCCN2Cc3ccccc3C(CNCCc3cccc(Cl)c3)C2c2ccc(Cl)cc2Cl)cc1` (centres unmarked) [TRG 2414-16], for which the “MC-1 IC50” value in experiment [1] (setting [4]) is reported as “no fit”. Further, the IC50 in experiment [2] (TRG 2414 library) was 33.4 µM.
With `COc1cccc(CNCC2c3ccccc3CN(CCCCC(N)CN)C2c2ccc(Cl)cc2Cl)c1` (centres unmarked) [TRG 2414-17], the results for the IC50 in experiment [1] (setting [4]) and in experiment [2] (TRG 2414 library) were 3.08 µM and 1.63 µM, respectively.
Turning to `COc1cccc(CNCC2c3ccccc3CN(CCCCC(CN)NCCc3ccccc3)C2c2ccc(Cl)cc2Cl)c1` (centres unmarked) [TRG 2414-18], the IC50 was 4.97 µM in experiment [1] (setting [4]) and 8.22 µM in experiment [2] (TRG 2414 library).
The corresponding values for `COc1cccc(CNCC2c3ccccc3CN(CCCCC(CN)NCc3ccccc3)C2c2ccc(Cl)cc2Cl)c1` (centres unmarked) [TRG 2414-19] are 3.27 µM and 7.31 µM.
Regarding `COc1cccc(CNCC2c3ccccc3CN(CCCCC(CN)NCC(C)c3ccc(CC(C)C)cc3)C2c2ccc(Cl)cc2Cl)c1` (centres unmarked) [TRG 2414-20], the IC50 came to 27.4 µM in experiment [1] (setting [4]) and 38.1 µM in experiment [2] (TRG 2414 library).
As for `COc1ccc(CNCC2c3ccccc3CN(CCCCC(N)CN)C2c2ccc(Cl)cc2Cl)cc1` (centres unmarked) [TRG 2414-21], the IC50 in experiment [1] (setting [4]) is 1.12 µM; in experiment [2] (TRG 2414 library) it was 1.57 µM.
On to `COc1ccc(CNCC2c3ccccc3CN(CCCCC(CN)NCCc3ccccc3)C2c2ccc(Cl)cc2Cl)cc1` (centres unmarked) [TRG 2414-22], for which the IC50 in experiment [1] (setting [4]) came to 3.56 µM; in experiment [2] (TRG 2414 library) it was 5.02 µM.
The corresponding values for `COc1ccc(CNCC2c3ccccc3CN(CCCCC(CN)NCc3ccccc3)C2c2ccc(Cl)cc2Cl)cc1` (centres unmarked) [TRG 2414-23] are 3.19 µM and 6.14 µM.
In the same order, the values of `COc1ccc(CNCC2c3ccccc3CN(CCCCC(CN)NCC(C)c3ccc(CC(C)C)cc3)C2c2ccc(Cl)cc2Cl)cc1` (centres unmarked) [TRG 2414-24] are 25.5 µM and 37.5 µM.
The corresponding values for `COc1ccc(CCNCC2c3ccccc3CN(CCCC[C@H](N)CN)C2c2ccc(Cl)cc2Cl)cc1` (some centres unmarked) [TRG 2414-25] are 1.39 µM and 0.52 µM.
Regarding `COc1ccc(CCNCC2c3ccccc3CN(CCCCC(CN)NCc3ccccc3)C2c2ccc(Cl)cc2Cl)cc1` (centres unmarked) [TRG 2414-27], the IC50 in experiment [1] (setting [4]) came to 2.65 µM; in experiment [2] (TRG 2414 library), 2.6 µM.
In the same order, the values of `COc1ccc(CCNCC2c3ccccc3CN(CCCCC(CN)NCC(C)c3ccc(CC(C)C)cc3)C2c2ccc(Cl)cc2Cl)cc1` (centres unmarked) [TRG 2414-28] are 13.9 µM and 7.42 µM.
The corresponding values for `NCC(N)CCCCN1Cc2ccccc2C(CNCc2ccccc2)C1c1ccc(Cl)cc1Cl` (centres unmarked) [TRG 2414-29] are 5.66 µM and 4.4 µM.
The corresponding values for `NCC(CCCCN1Cc2ccccc2C(CNCc2ccccc2)C1c1ccc(Cl)cc1Cl)NCCc1ccccc1` (centres unmarked) [TRG 2414-30] are 5.39 µM and 6.21 µM.
Regarding `NCC(CCCCN1Cc2ccccc2C(CNCc2ccccc2)C1c1ccc(Cl)cc1Cl)NCc1ccccc1` (centres unmarked) [TRG 2414-31], the IC50 amounted to 3.9 µM in experiment [1] (setting [4]) and 7.03 µM in experiment [2] (TRG 2414 library).
